Data taken from ChEMBL document CHEMBL3045679, “Microwave-assisted synthesis and pharmacological studies of novel 5-deazaalloxazine derivatives” (2012).
Converted amounts (≈) assume the structure as drawn. The source made the active and inactive calls. No cut-off for these calls is given here.

Legend:
[1] = tested on: Lipomyces lipofer; test: Antifungal activity against Lipomyces lipofer NCIM 3252 at 1000 ug/disk after 72 hr by disk diffusion method; format: functional; conditions: NCIM 3252, 72 h, read-out: DIZ
[2] = tested on: Lipomyces lipofer; test: Antifungal activity against Lipomyces lipofer NCIM 3252 at 500 ug/disk after 72 hr by disk diffusion method; format: functional; conditions: NCIM 3252, 72 h, read-out: DIZ
[3] = tested on: Candida albicans; test: Antifungal activity against Candida albicans NCIM 3471 at 1000 ug/disk after 72 hr by disk diffusion method; format: functional; conditions: NCIM 3471, 72 h, read-out: DIZ
[4] = tested on: Candida albicans; test: Antifungal activity against Candida albicans NCIM 3471 at 500 ug/disk after 72 hr by disk diffusion method; format: functional
[5] = tested on: Rhodotorula mucilaginosa; test: Antifungal activity against Rhodotorula mucilaginosa NCIM 3174 at 1000 ug/disk after 72 hr by disk diffusion method; format: functional; conditions: NCIM 3174, 72 h, read-out: DIZ
[6] = tested on: Rhodotorula mucilaginosa; test: Antifungal activity against Rhodotorula mucilaginosa NCIM 3174 at 500 ug/disk after 72 hr by disk diffusion method; format: functional; conditions: for zone of inhibition at 500 µg/disc: NCIM 3174, 72 h, read-out: DIZ
[7] = tested on: Aspergillus flavus; test: Antifungal activity against Aspergillus flavus NCIM 535 at 1000 ug/disk after 72 hr by disk diffusion method; format: functional; conditions: NCIM 535, 72 h, read-out: DIZ
[8] = tested on: Aspergillus flavus; test: Antifungal activity against Aspergillus flavus NCIM 535 at 500 ug/disk after 72 hr by disk diffusion method; format: functional
[9] = tested on: Aspergillus niger; test: Antifungal activity against Aspergillus niger NCIM 1196 at 1000 ug/disk after 72 hr by disk diffusion method; format: functional; conditions: for zone of inhibition at 1000 µg/disc: NCIM 1196, 72 h, read-out: DIZ
[10] = tested on: Aspergillus niger; test: Antifungal activity against Aspergillus niger NCIM 1196 at 500 ug/disk after 72 hr by disk diffusion method; format: functional
[11] = tested on: Penicillium chrysogenum; test: Antifungal activity against Penicillium chrysogenum NCIM 707 at 1000 ug/disk after 72 hr by disk diffusion method; format: functional; conditions: NCIM 707, 72 h, read-out: DIZ
[12] = tested on: Penicillium chrysogenum; test: Antifungal activity against Penicillium chrysogenum NCIM 707 at 500 ug/disk after 72 hr by disk diffusion method; format: functional; conditions: for zone of inhibition at 500 µg/disc: NCIM 707, 72 h, read-out: DIZ
[13] = tested on: Streptomyces albus; test: Antibacterial activity against Streptomyces albus NCIM 2178 at 1000 ug/disk after 24 hr by disk diffusion method; format: functional; conditions: for zone of inhibition at 1000 µg/disc: NCIM 2178, 24 h, read-out: DIZ
[14] = tested on: Streptomyces albus; test: Antibacterial activity against Streptomyces albus NCIM 2178 at 500 ug/disk after 24 hr by disk diffusion method; format: functional, organism-based
[15] = tested on: Bacillus cereus; test: Antibacterial activity against Bacillus cereus NCIM 2155 at 1000 ug/disk after 24 hr by disk diffusion method; format: functional; conditions: NCIM 2155, 24 h, read-out: DIZ
[16] = tested on: Bacillus cereus; test: Antibacterial activity against Bacillus cereus NCIM 2155 at 500 ug/disk after 24 hr by disk diffusion method; format: functional; conditions: NCIM 2155, 24 h, read-out: DIZ
[17] = tested on: Bacillus subtilis; test: Antibacterial activity against Bacillus subtilis NCIM 2063 at 1000 ug/disk after 24 hr by disk diffusion method; format: functional; conditions: NCIM 2063, 24 h, read-out: DIZ
[18] = tested on: Bacillus subtilis; test: Antibacterial activity against Bacillus subtilis NCIM 2063 at 500 ug/disk after 24 hr by disk diffusion method; format: functional
[19] = tested on: Klebsiella aerogenes; test: Antibacterial activity against Enterobacter aerogenes NCIM 2239 at 1000 ug/disk after 24 hr by disk diffusion method; format: functional; conditions: NCIM 2239, 24 h, read-out: DIZ
[20] = tested on: Klebsiella aerogenes; test: Antibacterial activity against Enterobacter aerogenes NCIM 2239 at 500 ug/disk after 24 hr by disk diffusion method; format: functional; conditions: for zone of inhibition at 500 µg/disc: NCIM 2239, 24 h, read-out: DIZ
[21] = tested on: Pseudomonas aeruginosa; test: Antibacterial activity against Pseudomonas aeruginosa NCIM 2200 at 1000 ug/disk after 24 hr by disk diffusion method; format: functional; conditions: NCIM 2200, 24 h, read-out: DIZ
[22] = tested on: Pseudomonas aeruginosa; test: Antibacterial activity against Pseudomonas aeruginosa NCIM 2200 at 500 ug/disk after 24 hr by disk diffusion method; format: functional; conditions: for zone of inhibition at 500 µg/disc: NCIM 2200, 24 h, read-out: DIZ
[23] = tested on: Escherichia coli; test: Antibacterial activity against Escherichia coli NCIM 2065 at 1000 ug/disk after 24 hr by disk diffusion method; format: functional; conditions: NCIM 2065, 24 h, read-out: DIZ
[24] = tested on: Escherichia coli; test: Antibacterial activity against Escherichia coli NCIM 2065 at 500 ug/disk after 24 hr by disk diffusion method; format: functional; conditions: for zone of inhibition at 500 µg/disc: NCIM 2065, 24 h, read-out: DIZ
[25] = tested on: Bacillus subtilis; test: Antibacterial activity against Bacillus subtilis NCIM 2063 after 24 hr by broth dilution assay; format: functional; conditions: NCIM 2063, 24 h
[26] = tested on: Klebsiella aerogenes; test: Antibacterial activity against Enterobacter aerogenes NCIM 2239 after 24 hr by broth dilution assay; format: functional; conditions: NCIM 2239, 24 h
[27] = tested on: Pseudomonas aeruginosa; test: Antibacterial activity against Pseudomonas aeruginosa NCIM 2200 after 24 hr by broth dilution assay; format: functional; conditions: NCIM 2200, 24 h
[28] = tested on: Escherichia coli; test: Antibacterial activity against Escherichia coli NCIM 2065 after 24 hr by broth dilution assay; format: functional; conditions: NCIM 2065, 24 h
[29] = tested on: Lipomyces lipofer; test: Antifungal activity against Lipomyces lipofer NCIM 3252 after 72 hr by broth dilution assay; format: functional; conditions: NCIM 3252, 72 h
[30] = tested on: Candida albicans; test: Antifungal activity against Candida albicans NCIM 3471 after 72 hr by broth dilution assay; format: functional; conditions: NCIM 3471, 72 h
[31] = tested on: Rhodotorula mucilaginosa; test: Antifungal activity against Rhodotorula mucilaginosa NCIM 3174 after 72 hr by broth dilution assay; format: functional; conditions: NCIM 3174, 72 h
[32] = tested on: Aspergillus flavus; test: Antifungal activity against Aspergillus flavus NCIM 535 after 72 hr by broth dilution assay; format: functional; conditions: NCIM 535, 72 h
[33] = tested on: Penicillium chrysogenum; test: Antifungal activity against Penicillium chrysogenum NCIM 707 after 72 hr by broth dilution assay; format: functional; conditions: NCIM 707, 72 h
[34] = tested on: Streptomyces albus; test: Antibacterial activity against Streptomyces albus NCIM 2178 after 24 hr by broth dilution assay; format: functional; conditions: NCIM 2178, 24 h
[35] = tested on: Bacillus cereus; test: Antibacterial activity against Bacillus cereus NCIM 2155 after 24 hr by broth dilution assay; format: functional; conditions: NCIM 2155, 24 h

Structure (SMILES)	zone of inhibition at 1000 µg/disc [1] [mm]	zone of inhibition at 500 µg/disc [2] [mm]	zone of inhibition at 1000 µg/disc [3] [mm]	zone of inhibition at 1000 µg/disc [5] [mm]	zone of inhibition at 1000 µg/disc [7] [mm]	diameter of the inhibition zone (DIZ) [10]	zone of inhibition at 1000 µg/disc [11] [mm]	diameter of the inhibition zone (DIZ) [14]	zone of inhibition at 1000 µg/disc [15] [mm]	zone of inhibition at 500 µg/disc [16] [mm]	zone of inhibition at 1000 µg/disc [17] [mm]	zone of inhibition at 1000 µg/disc [19] [mm]	zone of inhibition at 1000 µg/disc [21] [mm]	zone of inhibition at 1000 µg/disc [23] [mm]	MIC [25] [µg/mL]	MIC [26] [µg/mL]	MIC [27] [µg/mL]	MIC [28] [µg/mL]	MIC [29] [µg/mL]	MIC [30] [µg/mL]	also measured
O=c1[nH]c(=S)[nH]c2nc3ccccc3cc12	12	9	11	12	15	inactive	12	inactive	11	8	10	13	11	10	62.5 (≈ 273 µM)	3.9 (≈ 17 µM)	31.2 (≈ 136 µM)	31.2 (≈ 136 µM)	125 (≈ 545 µM)	125 (≈ 545 µM)	diameter of the inhibition zone (DIZ) [4]: inactive; zone of inhibition at 500 µg/disc [6]: 10 mm; zone of inhibition at 500 µg/disc ([8]; NCIM 535, 72 h, read-out: DIZ): 9 mm; zone of inhibition at 1000 µg/disc [9]: 10 mm; zone of inhibition at 500 µg/disc [12]: 10 mm; zone of inhibition at 1000 µg/disc [13]: 12 mm; diameter of the inhibition zone (DIZ) [18]: inactive; zone of inhibition at 500 µg/disc [20]: 10 mm; zone of inhibition at 500 µg/disc [22]: 10 mm; zone of inhibition at 500 µg/disc [24]: 9 mm; MIC [31]: 15.6 µg/mL (≈ 68 µM); MIC [32]: 7.8 µg/mL (≈ 34 µM); MIC [33]: 7.8 µg/mL (≈ 34 µM); MIC [34]: 62.5 µg/mL (≈ 273 µM); MIC [35]: 31.2 µg/mL (≈ 136 µM)
COc1ccc2nc3[nH]c(=O)[nH]c(=O)c3cc2c1	11	9	10	10	9	inactive	9	inactive	12	9	9	13	13	12	62.5 (≈ 257 µM)	3.9 (≈ 16 µM)	31.2 (≈ 128 µM)	7.8 (≈ 32.1 µM)	31.2 (≈ 128 µM)	31.2 (≈ 128 µM)	zone of inhibition at 500 µg/disc ([4]; NCIM 3471, 72 h, read-out: DIZ): 9 mm; diameter of the inhibition zone (DIZ) [6]: inactive; diameter of the inhibition zone (DIZ) [8]: inactive; diameter of the inhibition zone (DIZ) [9]: inactive; diameter of the inhibition zone (DIZ) [12]: inactive; diameter of the inhibition zone (DIZ) [13]: inactive; diameter of the inhibition zone (DIZ) [18]: inactive; zone of inhibition at 500 µg/disc [20]: 10 mm; zone of inhibition at 500 µg/disc [22]: 9 mm; zone of inhibition at 500 µg/disc [24]: 10 mm; MIC [31]: 15.6 µg/mL (≈ 64.1 µM); MIC [33]: 62.5 µg/mL (≈ 257 µM); MIC [35]: 31.2 µg/mL (≈ 128 µM)
O=c1[nH]c(=S)[nH]c2nc3ccc(Br)cc3cc12	12	8	12	12	9	inactive	12	inactive	15	10	14	8	12	10	7.8 (≈ 25.3 µM)	125 (≈ 406 µM)	125 (≈ 406 µM)	125 (≈ 406 µM)	62.5 (≈ 203 µM)	125 (≈ 406 µM)	diameter of the inhibition zone (DIZ) [4]: inactive; zone of inhibition at 500 µg/disc [6]: 7 mm; diameter of the inhibition zone (DIZ) [8]: inactive; zone of inhibition at 1000 µg/disc [9]: 10 mm; zone of inhibition at 500 µg/disc [12]: 8 mm; zone of inhibition at 1000 µg/disc [13]: 12 mm; zone of inhibition at 500 µg/disc ([18]; NCIM 2063, 24 h, read-out: DIZ): 12 mm; diameter of the inhibition zone (DIZ) [20]: inactive; diameter of the inhibition zone (DIZ) [22]: inactive; diameter of the inhibition zone (DIZ) [24]: inactive; MIC [31]: 125 µg/mL (≈ 406 µM); MIC [34]: 62.5 µg/mL (≈ 203 µM); MIC [35]: 15.6 µg/mL (≈ 50.6 µM)
